# Experimental data published in patent US20220274954A1, “SUBSTITUTED N-PHENYL-N-AMINOUARCILS AND SALTS THEREOF AND USE THEREOF AS HERBICIDAL AGENTS” (Bayer Aktiengesellschaft, priority 2019, published 2022).
# Experiments:
# Format in all cases: in vivo
# Glycine max = assay: Post-emergence crop plant compatibility
# Method: (§1) Seeds of monocotyledonous and dicotyledonous weeds and crop plants were placed in sandy loam in plastic or wood-fiber pots, covered with soil and cultivated in a greenhouse under controlled growth conditions. 2 to 3 weeks after sowing, the test plants were treated at the one-leaf stage. The compounds of the invention, formulated in the form of wettable powders (WP) or as emulsion concentrates (EC), were then sprayed onto the green parts of the plants as aqueous suspension or emulsion with addition of 0.5% additive at a water application rate of […] (converted). After the test plants had been kept in the greenhouse under optimum growth conditions for about 3 weeks, the activity of the preparations was rated visually in comparison to untreated controls. For example, 100% activity=the plants have died, 0% activity=like control plants.
# (§2) Here, the observed effects on selected crop plants are stated in comparison to the untreated controls (values in %).
# Triticum aestivum = assay: Post-emergence crop plant compatibility; details: application rate 5 g/ha
# Method: as §1, §2
# Oryza sativa = assay: Post-emergence crop plant compatibility
# Method: as §1, §2
# Zea mays = assay: Post-emergence crop plant compatibility
# Method: as §1, §2
# Amaranthus retroflexus = assay: Post-emergence herbicidal action; details: Amaranthus retroflexus, 504 h, read-out: Amaranthus retroflexus (efficacy in %); for pest or weed control at 5 g/ha: application rate 5 g/ha; for pest or weed control at 20 g/ha: application rate 20 g/ha
# Method: as §1, with “plants. Tables A1 to A14 below show the effects of selected compounds of the general formula (I) according to Tables I.1 to I.34 on various harmful plants and at an application rate corresponding to 20 g/ha and less, which were obtained by the experimental procedure mentioned above.” for “plants.”
# Setaria viridis = assay: Post-emergence herbicidal action; details: 504 h, read-out: Setaria viridis (efficacy in %); for pest or weed control at 5 g/ha: application rate 5 g/ha; for pest or weed control at 20 g/ha: application rate 20 g/ha
# Method: as §1, with “plants. Tables A1 to A14 below show the effects of selected compounds of the general formula (I) according to Tables I.1 to I.34 on various harmful plants and at an application rate corresponding to 20 g/ha and less, which were obtained by the experimental procedure mentioned above.” for “plants.”
# Polygonum convolvulus = assay: Post-emergence herbicidal action; details: Fallopia convolvulus, 504 h, read-out: Polygonum convolvulus (efficacy in %); for pest or weed control at 5 g/ha: application rate 5 g/ha; for pest or weed control at 20 g/ha: application rate 20 g/ha
# Method: as §1, with “plants. Tables A1 to A14 below show the effects of selected compounds of the general formula (I) according to Tables I.1 to I.34 on various harmful plants and at an application rate corresponding to 20 g/ha and less, which were obtained by the experimental procedure mentioned above.” for “plants.”
# Veronica persica = assay: Post-emergence herbicidal action; details: Veronica persica, 504 h, read-out: Veronica persica (efficacy in %); for pest or weed control at 5 g/ha: application rate 5 g/ha; for pest or weed control at 20 g/ha: application rate 20 g/ha
# Method: as §1, with “plants. Tables A1 to A14 below show the effects of selected compounds of the general formula (I) according to Tables I.1 to I.34 on various harmful plants and at an application rate corresponding to 20 g/ha and less, which were obtained by the experimental procedure mentioned above.” for “plants.”
# Digitaria sanguinalis = assay: Post-emergence herbicidal action; details: 504 h, read-out: Digitaria sanguinalis (efficacy in %); for pest or weed control at 20 g/ha: application rate 20 g/ha
# Method: as §1, with “plants. Tables A1 to A14 below show the effects of selected compounds of the general formula (I) according to Tables I.1 to I.34 on various harmful plants and at an application rate corresponding to 20 g/ha and less, which were obtained by the experimental procedure mentioned above.” for “plants.”
# Echinochloa crus-galli = assay: Post-emergence herbicidal action; details: Echinochloa crus-galli, 504 h, read-out: Echinochloa crus-galli (efficacy in %); for pest or weed control at 20 g/ha: application rate 20 g/ha
# Method: as §1, with “plants. Tables A1 to A14 below show the effects of selected compounds of the general formula (I) according to Tables I.1 to I.34 on various harmful plants and at an application rate corresponding to 20 g/ha and less, which were obtained by the experimental procedure mentioned above.” for “plants.”
# Stellaria media = assay: Post-emergence herbicidal action
# Method: as §1, with “plants. Tables A1 to A14 below show the effects of selected compounds of the general formula (I) according to Tables I.1 to I.34 on various harmful plants and at an application rate corresponding to 20 g/ha and less, which were obtained by the experimental procedure mentioned above.” for “plants.”
# Matricaria inodora = assay: Post-emergence herbicidal action; details: Tripleurospermum inodorum, 504 h, application rate 20 g/ha, read-out: Matricaria inodora (efficacy in %)
# Method: as §1, with “plants. Tables A1 to A14 below show the effects of selected compounds of the general formula (I) according to Tables I.1 to I.34 on various harmful plants and at an application rate corresponding to 20 g/ha and less, which were obtained by the experimental procedure mentioned above.” for “plants.”
# Viola tricolor = assay: Post-emergence herbicidal action; details: Viola tricolor, 504 h, read-out: Viola tricolor (efficacy in %); for pest or weed control at 5 g/ha: application rate 5 g/ha; for pest or weed control at 20 g/ha: application rate 20 g/ha
# Method: as §1, with “plants. Tables A1 to A14 below show the effects of selected compounds of the general formula (I) according to Tables I.1 to I.34 on various harmful plants and at an application rate corresponding to 20 g/ha and less, which were obtained by the experimental procedure mentioned above.” for “plants.”
# Abutilon theophrasti = assay: Post-emergence herbicidal action; details: Abutilon theophrasti, 504 h, read-out: Abutilon theophrasti (efficacy in %); for pest or weed control at 5 g/ha: application rate 5 g/ha; for pest or weed control at 20 g/ha: application rate 20 g/ha
# Method: as §1, with “plants. Tables A1 to A14 below show the effects of selected compounds of the general formula (I) according to Tables I.1 to I.34 on various harmful plants and at an application rate corresponding to 20 g/ha and less, which were obtained by the experimental procedure mentioned above.” for “plants.”
# Brassica napus = assay: Post-emergence crop plant compatibility
# Method: as §1, §2
# Pharbitis purpurea = assay: Post-emergence herbicidal action; details: Ipomoea purpurea, 504 h, read-out: Pharbitis purpurea (efficacy in %); for pest or weed control at 5 g/ha: application rate 5 g/ha; for pest or weed control at 20 g/ha: application rate 20 g/ha
# Method: as §1, with “plants. Tables A1 to A14 below show the effects of selected compounds of the general formula (I) according to Tables I.1 to I.34 on various harmful plants and at an application rate corresponding to 20 g/ha and less, which were obtained by the experimental procedure mentioned above.” for “plants.”
# Alopecurus myosuroides = assay: Post-emergence herbicidal action; details: application rate 20 g/ha
# Method: as §1, with “plants. Tables A1 to A14 below show the effects of selected compounds of the general formula (I) according to Tables I.1 to I.34 on various harmful plants and at an application rate corresponding to 20 g/ha and less, which were obtained by the experimental procedure mentioned above.” for “plants.”
Glycine max (efficacy in %) (Glycine max; application rate 1.25 g/ha) [%],Triticum aestivum (efficacy in %) (Triticum aestivum) [%],Oryza sativa (efficacy in %) (Oryza sativa; application rate 5 g/ha) [%],Zea mays (efficacy in %) (Zea mays; application rate 1.25 g/ha) [%],Zea mays (efficacy in %) (Zea mays; application rate 5 g/ha) [%],SMILES,pest or weed control at 5 g/ha (Amaranthus retroflexus) [%],pest or weed control at 20 g/ha (Amaranthus retroflexus) [%],pest or weed control at 5 g/ha (Setaria viridis) [%],pest or weed control at 20 g/ha (Setaria viridis) [%],pest or weed control at 5 g/ha (Polygonum convolvulus) [%],pest or weed control at 20 g/ha (Polygonum convolvulus) [%],pest or weed control at 5 g/ha (Veronica persica) [%],pest or weed control at 20 g/ha (Veronica persica) [%],pest or weed control at 20 g/ha (Digitaria sanguinalis) [%],pest or weed control at 20 g/ha (Echinochloa crus-galli) [%],Stellaria media (efficacy in %) (Stellaria media; application rate 5 g/ha) [%],Stellaria media (efficacy in %) (Stellaria media; application rate 20 g/ha) [%],pest or weed control at 20 g/ha (Matricaria inodora) [%],pest or weed control at 5 g/ha (Viola tricolor) [%],pest or weed control at 20 g/ha (Abutilon theophrasti) [%],also measured
10,20,0,10,20,"CCOC(=O)C(C)Oc1ncccc1Sc1cc(-n2c(=O)cc(C(F)(F)F)n(N)c2=O)c(F)cc1Cl (centres unmarked) [I.2-442, Ethyl 2-{[3-({5-[3-amino-2,6-dioxo-4-(trifluoromethyl)-3,6-dihydropyrimidin-1(2H)-yl]-2-chloro-4-fluorophenyl}sulfanyl)pyridin-2-yl]oxy}propanoate]",100,100,100,100,100,100,100,100,100,100,80,100,90,100,100,pest or weed control at 20 g/ha (Viola tricolor): 100%; pest or weed control at 5 g/ha (Abutilon theophrasti): 100%
0,20,10,–,20,"Nn1c(C(F)(F)F)cc(=O)n(-c2cc(Sc3cccnc3OCCC(=O)OCc3ccccc3)c(Cl)cc2F)c1=O [I.5-457, Benzyl 3-{[3-({5-[3-amino-2,6-dioxo-4-(trifluoromethyl)-3,6-dihydropyrimidin-1(2H)-yl]-2-chloro-4-fluorophenyl}sulfanyl)pyridin-2-yl]oxy}propanoate]",100,–,100,100,90,100,100,100,–,80,80,100,–,100,80,Brassica napus (efficacy in %) (Brassica napus; application rate 1.25 g/ha): 0%; Brassica napus (efficacy in %) (Brassica napus; application rate 5 g/ha): 10%; Glycine max (efficacy in %) (Glycine max; application rate 5 g/ha): 10%; Oryza sativa (efficacy in %) (Oryza sativa; application rate 1.25 g/ha): 0%; pest or weed control at 5 g/ha (Pharbitis purpurea): 90%; pest or weed control at 20 g/ha (Pharbitis purpurea): 90%
–,20,20,10,20,"COC(=O)CCCOc1ncccc1Sc1cc(-n2c(=O)cc(C(F)(F)F)n(N)c2=O)c(F)cc1Cl [I.6-441, Methyl 4-{[3-({5-[3-amino-2,6-dioxo-4-(trifluoromethyl)-3,6-dihydropyrimidin-1(2H)-yl]-2-chloro-4-fluorophenyl}sulfanyl)pyridin-2-yl]oxy}butanoate]",100,100,90,100,100,100,100,100,100,90,100,100,80,100,100,Brassica napus (efficacy in %) (Brassica napus; application rate 1.25 g/ha): 20%; Alopecurus myosuroides (efficacy in %) (Alopecurus myosuroides): 80%; pest or weed control at 5 g/ha (Digitaria sanguinalis; application rate 5 g/ha): 80%; pest or weed control at 5 g/ha (Echinochloa crus-galli; application rate 5 g/ha): 80%; pest or weed control at 5 g/ha (Pharbitis purpurea): 80%; pest or weed control at 20 g/ha (Pharbitis purpurea): 90%; pest or weed control at 20 g/ha (Viola tricolor): 100%; pest or weed control at 5 g/ha (Abutilon theophrasti): 100%
